Structures are written as SMILES. In brackets after ≈: the same amount, converted by molar mass.

Assay [1] deals with trichophytia. The assay is described as follows: in vivo action on oral administration, trichophytia of mice. Set-up: key: ++++: very good action = no sign of; +++: good action = very slight sign of; ++: action = slight loss of hair; +: slight action = loss of hair, squamation. As to conditions: 100 mg/kg of body weight, twice daily, Control pronounced dermatophytosis. The source says:
(§1) The table which follows summarizes in the vivo action of the preparations claimed on oral administration--for the models of candidosis of mice and trichophytia of mice--and on local administration--for the model of trichophytia of guinea-pigs.

Assay [2] concerns trichophytia. The assay is described as follows: in vivo action on local administration, trichophytia of guinea-pigs. More on the design: key: ++++: very good action = no sign of; +++: good action = very slight sign of; ++: action = slight loss of hair; +: slight action = loss of hair, squamation. Particulars: 1% strength solution once a day from the 3rd to the 13th day after infection, Control pronounced dermatophytosis.
From the text: as §1

For another assay, the system named is candidosis. Description: in vivo action on oral administration, candidosis of mice. Particulars: 100 mg/kg of body weight, twice daily, Control 5.
From the text: as §1

In assay [3] the test system is Trich. ment. Description: sporocidal action, Trich. ment. spores. Type of assay: cell-based, Trichophyton mentagrophytes. As to conditions: 10 γ of preparation/ml, 72 hours; Control 10^5 = mycelium. On the procedure:
(§2) About 10^4 spores of Trich. ment. or Trich. Quinckeanum or Aspergillus fumigatus per ml are suspended in physiological NaCl solution and the stated preparations are added in concentrations of 1, 5, 10, 50 and 100 y/ml of suspending solution. The spore suspensions are incubated for 24, 48, 72, 96, 120 and 240 hours, 0.1 ml are withdrawn per concentration and per tube after the stated incubation times and spread homogeneously on malt extract Petri dishes, and the number of spores which still germinate is counted, after 48 hours' incubation time at 28° C., in comparison to untreated controls. The table which follows lists, for the individual preparations, the number of spores which still germinate after an exposure period of 72 hours at preparation concentrations of 10 γ/ml.

Another assay has as its system Aspergillus fum. Description: sporocidal action, Aspergillus fumigatus spores. Type of assay: cell-based. As to conditions: 10 γ of preparation/ml, 72 hours; Control 10^5 = mycelium. How it is done:
as §2

Another assay concerns Cand. alb. Description: in vitro series dilution test (MIC), Cand. alb. It is filed as cell-based. Particulars: 28° C., 24-96 hours, 10^3 germs/ml; read-out: MIC values when used against Cand. alb. How it is done: (§3) The in vitro test was carried out as a series dilution test. Amount inoculated: 10^3 germs/ml. The nutrient substrates used were Sabouraud's milieu d'epreuve, meat stock/glucose bouillon, malt extract agar and Francis's blood agar. The incubation temperature was 28° C. and the incubation time 24-96 hours.

Another assay concerns Sporothrix Schenckii. The assay is described as follows: in vitro series dilution test (MIC), Sporothrix Schenckii. As to conditions: 28° C., 24-96 hours, 10^3 germs/ml, read-out: MIC values when used against Sporothrix Schenckii. Type of assay: cell-based. On the procedure: as §3
For a further assay, the system named is Torulopsis glab. The assay is described as follows: in vitro series dilution test (MIC), Torulopsis glab. As to conditions: 28° C., 24-96 hours, 10^3 germs/ml; read-out: MIC values when used against Torulopsis glab. Type of assay: cell-based. On the procedure:
as §3

For a further assay, the system named is Asp. fum. The assay is described as follows: in vitro series dilution test (MIC), Asp. fum. Type of assay: cell-based. Particulars: Aspergillus fumigatus; 28° C., 24-96 hours, 10^3 germs/ml; read-out: MIC values when used against Asp. fum. How it is done: as §3
Assay [4] relates to Trich. ment. Description: in vitro series dilution test (MIC), Trich. ment. Type of assay: cell-based. As to conditions: Trichophyton mentagrophytes; 28° C., 24-96 hours, 10^3 germs/ml; read-out: MIC values when used against Trich. ment. How it is done: as §3
For a further assay, the system named is spores. Particulars: prior art / commercially available products; cited from earlier work.

For `CC(C)(C)C(O)C(Oc1ccc(S(=O)(=O)c2ccccc2)cc1)n1ccnc1` (stereo not drawn) [drawing 17], the “Therapeutic activity, trichophytia, oral administration” value in the assay on trichophytia [1] was “++”. Moreover, in the assay on trichophytia [2], the “Therapeutic activity, trichophytia, local application” value is “+++”. Also, the “Therapeutic activity, candidosis, % survival” value in the assay with candidosis came out at 80%.
Consider `CC(C)(C)C(O)C(Oc1ccc(Cc2ccccc2)cc1)n1ccnc1` (stereo not drawn) [drawing 23], for which the “Number of spores still capable of germination, Trich. ment.” value (shortened to “Number … Trich. ment.”) with Trich. ment. [3] was found to be 110. In addition, the “Number of spores still capable of germination, Aspergillus fum.” value (shortened to “Number … Aspergillus fum.”) in the assay with Aspergillus fum. is given as 40.
Consider `CC(C)(C)C(O)C(Oc1ccc(-c2ccc(Cl)cc2)cc1)n1ccnc1` (stereo not drawn) [drawing 8], for which the MIC (in general, the least concentration at which growth counts as inhibited) with Cand. alb. was 4 µg/mL (≈ 10.8 µM); in the assay with Sporothrix Schenckii it was 0.1 µg/mL (≈ 0.27 µM); in the assay on Torulopsis glab. it was 4 µg/mL (≈ 10.8 µM); with Asp. fum., 2 to 4 µg/mL (≈ 5.39 to 10.8 µM); in the assay on Trich. ment. [4], less than 1 µg/mL.
Regarding `CC(C)(C)C(=O)C(Oc1ccc(Cc2ccccc2)cc1)n1ccnc1` (stereo not drawn) [drawing 26], the “Number … Trich. ment.” value with Trich. ment. [3] came to 40. Moreover, the “Number … Aspergillus fum.” value in the assay with Aspergillus fum. is listed as 60.
On to `CC(C)(C)C(=O)C(Oc1c(Cl)cc(-c2ccc(Br)cc2)cc1Cl)n1ccnc1` (stereo not drawn) [drawing 11], for which the MIC worked out at 8 µg/mL (≈ 16.6 µM) in the assay on Cand. alb.; 0.1 µg/mL (≈ 0.207 µM) in the assay on Sporothrix Schenckii; 2 µg/mL (≈ 4.15 µM) with Torulopsis glab.; 4 µg/mL (≈ 8.3 µM) in the assay on Asp. fum.; 4 µg/mL (≈ 8.3 µM) with Trich. ment. [4].
As to `COC1=CC(=O)C[C@@H](C)[C@]12Oc1c(Cl)c(OC)cc(OC)c1C2=O` [Griseofulvin], in the assay with spores, the sporocidal activity result is “not present”.
Regarding `CC(C)(C)C(=O)C(Oc1c(Cl)cc(-c2ccc(Br)cc2)cc1Br)n1ccnc1` (stereo not drawn) [drawing 28], the “Number … Trich. ment.” value in the assay on Trich. ment. [3] is reported as 60. For the same compound, in the assay with Aspergillus fum., the “Number … Aspergillus fum.” value is listed as 45.
For the compound `CC(C)(C)C(O)C(Oc1ccc(-c2ccc(Cl)cc2)cc1)n1ccnc1` (stereo not drawn) [drawing 15], the “Therapeutic activity, trichophytia, oral administration” value with trichophytia [1] is listed as “+++”. The “Therapeutic activity, trichophytia, local application” value in the assay with trichophytia [2] is on record as “++++”. The “Therapeutic activity, candidosis, % survival” value with candidosis was 80%.
For `CC(C)(C)C(=O)C(Oc1c(Cl)cc(-c2ccc(Br)cc2)cc1Br)n1ccnc1` (stereo not drawn) [drawing 21], in that order: “+”, “++” and 40%.
For `CC(C)(C)C(=O)C(Oc1ccc(Cc2ccccc2)cc1)n1ccnc1` (stereo not drawn) [drawing 12], the MIC with Cand. alb. is 16 µg/mL (≈ 45.9 µM); in the assay with Sporothrix Schenckii it was 2 µg/mL (≈ 5.74 µM); in the assay with Torulopsis glab., 4 µg/mL (≈ 11.5 µM); in the assay with Asp. fum., 2 µg/mL (≈ 5.74 µM); in the assay on Trich. ment. [4], less than 1 µg/mL.
`CC(C)(C)C(=O)C(Oc1c(Cl)cc(-c2ccc(Br)cc2)cc1Br)n1ccnc1` (stereo not drawn) [drawing 14]: the MIC in the assay on Cand. alb. was 8 µg/mL (≈ 15.2 µM); with Sporothrix Schenckii, 4 µg/mL (≈ 7.6 µM); in the assay on Torulopsis glab., 4 µg/mL (≈ 7.6 µM); with Asp. fum. it was 4 µg/mL (≈ 7.6 µM); in the assay on Trich. ment. [4] it was 8 µg/mL (≈ 15.2 µM).
`CC(C)(C)C(O)C(Oc1ccc(Cc2ccccc2)cc1)n1ccnc1` (stereo not drawn) [drawing 9]: the MIC in the assay on Cand. alb. was 4 µg/mL (≈ 11.4 µM); in the assay on Sporothrix Schenckii, 0.5 µg/mL (≈ 1.43 µM); with Torulopsis glab. it was 4 µg/mL (≈ 11.4 µM); with Asp. fum., less than 1 µg/mL; with Trich. ment. [4], less than 1 µg/mL.
`CC(C)(C)C(=O)C(Oc1ccc(S(=O)(=O)c2ccccc2)cc1)n1ccnc1` (stereo not drawn) [drawing 13]: the MIC in the assay on Cand. alb. turned out to be 4 µg/mL (≈ 10 µM); in the assay with Sporothrix Schenckii it was 2 µg/mL (≈ 5.02 µM); in the assay with Torulopsis glab. it was 2 µg/mL (≈ 5.02 µM); in the assay on Asp. fum., 1 µg/mL (≈ 2.51 µM); in the assay with Trich. ment. [4], 64 µg/mL (≈ 161 µM).
With `CC(C)(C)C(=O)C(Oc1c(Cl)cc(-c2ccc(Br)cc2)cc1Cl)n1ccnc1` (stereo not drawn) [drawing 18], the “Therapeutic activity, trichophytia, oral administration” value with trichophytia [1] is recorded as “++”. Further, the “Therapeutic activity, trichophytia, local application” value in the assay with trichophytia [2] is “+++”. The “Therapeutic activity, candidosis, % survival” value in the assay with candidosis is on record as 50%.
On to `C[C@@H]1[C@H](O)[C@@H](C)/C=C/C=C/CC/C=C/C=C/C=C/C=C/C(O[C@H]2O[C@H](C)[C@@H](O)[C@H](N)[C@@H]2O)CC2O[C@](O)(CC(O)C(O)CCC(O)CC(O)CC(O)CC(=O)O[C@H]1C)CC(O)C2C(=O)O` (stereo partly drawn) [Nystatin], for which the sporocidal activity entry in the assay with spores is reported as “not present”.
In the case of `CC(C)(C)C(O)C(Oc1ccc(S(=O)(=O)c2ccccc2)cc1)n1ccnc1` (stereo not drawn) [drawing 24], the “Number … Trich. ment.” value with Trich. ment. [3] is 60. In addition, the “Number … Aspergillus fum.” value with Aspergillus fum. worked out at 70.
As to `CC(C)(C)C(O)C(Oc1ccc(S(=O)(=O)c2ccccc2)cc1)n1ccnc1` (stereo not drawn) [drawing 10], the MIC is 2 to 4 µg/mL (≈ 4.99 to 9.99 µM) in the assay with Cand. alb.; 0.5 µg/mL (≈ 1.25 µM) with Sporothrix Schenckii; 4 µg/mL (≈ 9.99 µM) in the assay with Torulopsis glab.; less than 1 µg/mL in the assay on Asp. fum.; less than 1 µg/mL in the assay with Trich. ment. [4].
For `CC(C)(C)C(=O)C(Oc1c(Cl)cc(-c2ccc(Br)cc2)cc1Cl)n1ccnc1` (stereo not drawn) [drawing 25], the “Number … Trich. ment.” value in the assay on Trich. ment. [3] turned out to be 90. Further, the “Number … Aspergillus fum.” value in the assay on Aspergillus fum. is listed as 40.
For the compound `CC(C)(C)C(=O)C(Oc1ccc(S(=O)(=O)c2ccccc2)cc1)n1ccnc1` (stereo not drawn) [drawing 20], the “Therapeutic activity, trichophytia, oral administration” value with trichophytia [1] is “++”. In the assay on trichophytia [2], the “Therapeutic activity, trichophytia, local application” value is recorded as “+++”. In addition, the “Therapeutic activity, candidosis, % survival” value with candidosis was determined as 80%.
Take `CC(C)(C)C(O)C(Oc1ccc(-c2ccc(Cl)cc2)cc1)n1ccnc1` (stereo not drawn) [drawing 22]: in the assay with Trich. ment. [3], the “Number … Trich. ment.” value is on record as 80. In addition, the “Number … Aspergillus fum.” value in the assay with Aspergillus fum. is given as 35.
For `CC(C)(C)C(O)C(Oc1ccc(Cc2ccccc2)cc1)n1ccnc1` (stereo not drawn) [drawing 16], in the assay on trichophytia [1], the “Therapeutic activity, trichophytia, oral administration” value is recorded as “++”. The “Therapeutic activity, trichophytia, local application” value in the assay on trichophytia [2] is given as “+++”. Besides, the “Therapeutic activity, candidosis, % survival” value in the assay on candidosis stood at 60%.
For `CC(C)(C)C(=O)C(Oc1ccc(Cc2ccccc2)cc1)n1ccnc1` (stereo not drawn) [drawing 19], in that order: “+++”, “++” and 50%.
For `CC(C)(C)C(=O)C(Oc1ccc(S(=O)(=O)c2ccccc2)cc1)n1ccnc1` (stereo not drawn) [drawing 27], in the assay with Trich. ment. [3], the “Number … Trich. ment.” value is on record as 10^5. The “Number … Aspergillus fum.” value in the assay on Aspergillus fum. was 70.

The values are drawn from patent US4239767A, “Antimycotic diaryloxy-imidazolyl-O,N-acetals” (Bayer Aktiengesellschaft, priority 1974, dated 1980).
